Measured values as given in ChEMBL document CHEMBL1201862, “PubChem BioAssay data set” (2004).
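Briefly, cells in 96-well plates were exposed to five compound concentrations for 48 h, and endpoints were estimated by linear interpolation. Here, GI50 denotes the concentration required for 50% inhibition of growth.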 Activity calls are given as the source filed them. Rule as the data show it: active = GI50 up to about 1.1 µM and inactive = higher.

Key:
Assay in all cases: NCI-60 cell line screen, 48 h
[1] = test system: K562
[2] = test system: IGROV-1
[3] = test system: HT-29
[4] = test system: ACHN
[5] = test system: SK-MEL-5
[6] = test system: HOP-62
[7] = test system: Malme-3M
[8] = test system: LOX IMVI
[9] = test system: A549
[10] = test system: TK-10
[11] = test system: SK-OV-3
[12] = test system: NCI-H23
[13] = test system: SW-620
[14] = test system: RPMI-8226
[15] = test system: OVCAR-8
[16] = test system: UACC-62
[17] = test system: SK-MEL-28
[18] = test system: HCT-116
[19] = test system: HOP-92

Measured: GI50

CCOC(=O)c1ccc(/N=N\c2ccc(N(CCC#N)CCC#N)cc2C)cc1
inactive: [1] > 100 µM | [2] > 100 µM | [3] > 100 µM | [4] > 100 µM | [5] > 100 µM | [6] > 100 µM | [7] > 100 µM | [8] > 100 µM | [9] > 100 µM | [10] > 100 µM | [11] > 100 µM | [12] 95.1 µM | [13] > 100 µM | [14] > 100 µM | [15] > 100 µM | [16] > 100 µM

CCOC(=O)c1ccc(NC(=O)SCCC(=O)O)cc1
inactive: [1] 63.1 µM | [2] 35.4 µM | [3] 52.5 µM | [17] > 100 µM | [4] 51.1 µM | [6] > 100 µM | [8] 64.3 µM | [9] > 100 µM | [18] > 100 µM | [10] > 100 µM | [12] > 100 µM | [13] > 100 µM | [14] > 100 µM | [15] 56.4 µM | [16] 39.5 µM

CC[N+](CC)(CC)Cc1cn(S(=O)(=O)c2ccccc2)c2ccccc12
inactive: [1] > 100 µM | [2] > 100 µM | [3] > 100 µM | [17] > 100 µM | [4] > 100 µM | [5] > 100 µM | [6] > 100 µM | [7] > 100 µM | [9] > 100 µM | [19] > 100 µM | [18] > 100 µM | [10] > 100 µM | [12] > 100 µM | [13] > 100 µM | [14] > 100 µM | [15] > 100 µM | [16] > 100 µM

[N-]=[N+]=Nc1ccccc1Oc1ccccc1
inactive: [1] > 100 µM | [2] > 100 µM | [3] > 100 µM | [17] > 100 µM | [4] > 100 µM | [5] > 100 µM | [6] > 100 µM | [8] > 100 µM | [9] > 100 µM | [18] > 100 µM | [10] > 100 µM | [11] > 100 µM | [12] > 100 µM | [13] > 100 µM | [14] > 100 µM | [15] > 100 µM | [16] > 100 µM

CCOC(=O)c1cnc2c(ccc3ncccc32)c1OCC
inactive: [1] > 100 µM | [2] > 100 µM | [3] > 100 µM | [17] > 100 µM | [4] > 100 µM | [5] > 100 µM | [6] > 100 µM | [7] > 100 µM | [8] > 100 µM | [9] > 100 µM | [18] > 100 µM | [10] 60.5 µM | [11] > 100 µM | [12] > 100 µM | [13] > 100 µM | [15] > 100 µM | [16] > 100 µM

O=C1NC2C(CCO)CC=C[C@H]2c2cc3c(cc21)OCO3 (stereo partly drawn)
inactive: [1] > 100 µM | [2] > 100 µM | [3] > 100 µM | [17] > 100 µM | [4] > 100 µM | [6] > 100 µM | [7] > 100 µM | [8] > 100 µM | [9] > 100 µM | [18] > 100 µM | [10] > 100 µM | [11] > 100 µM | [12] > 100 µM | [13] > 100 µM | [14] > 100 µM | [15] > 100 µM | [16] > 100 µM

CC(C)(C)NC(=O)C12C3C4C1C1C2C3C41I (stereo not drawn)
inactive: [1] > 100 µM | [3] > 100 µM | [17] > 100 µM | [7] > 100 µM | [8] > 100 µM | [9] > 100 µM | [19] 84.1 µM | [18] > 100 µM | [10] > 100 µM | [12] > 100 µM | [13] > 100 µM | [14] > 100 µM | [15] > 100 µM

Cc1cccc(NC2=NC(=O)C(CC(=O)Nc3ccc(Cl)cc3C)S2)c1 (stereo not drawn)
inactive: [1] > 100 µM | [2] > 100 µM | [3] > 100 µM | [17] > 100 µM | [4] > 100 µM | [5] > 100 µM | [6] > 100 µM | [7] > 100 µM | [8] > 100 µM | [9] > 100 µM | [10] > 100 µM | [11] > 100 µM | [12] > 100 µM | [13] > 100 µM | [14] > 100 µM | [15] > 100 µM | [16] > 100 µM

Cc1cc(=O)n2c(cc3cccccc32)n1
inactive: [1] > 100 µM | [2] > 100 µM | [3] > 100 µM | [17] > 100 µM | [4] > 100 µM | [6] > 100 µM | [8] > 100 µM | [9] > 100 µM | [10] > 100 µM | [12] > 100 µM | [13] > 100 µM | [14] > 100 µM | [15] > 100 µM | [16] > 100 µM
